Results: patent US20090318456A1, “SUBSTITUTED PTERIDINES FOR THE TREATMENT AND PREVENTION OF VIRAL INFECTIONS” (Gilead Sciences, Inc., priority 2006, published 2009)

Columns and labels:
HCV replicon = assay: Anti-HCV replicon assay (EC50, luciferase); assay type: cell-based, Hepatitis C virus (HCV); settings: Table 1; Huh-7 HCV replicon cells, 3 days, luciferase; read-out: EC50
Method: (§1) The anti HCV activity of specifically 2,4,6-trisubstituted pteridine derivatives was tested in a human hepatoma Huh-7 cell line harbouring a HCV replicon. The assay comprised the following steps:
(§2) Step 1: compound preparation and serial dilution involved the following alternatives, depending upon the water solubility of pteridine derivative being tested: • 1. with respect to water soluble 2,4,6-trisubstituted pteridine derivatives, 500 μL of solution in cell media (DMEM, 10% FBS, P/S, L-Glutamine) was prepared with a concentration that is twice the concentration of the starting final serial dilution concentration. 150 μL of the solution was added to the pre-specified wells in column 1 of a 96-well cell culture plate (PerkinElmer, white plate, cat. #6005181, for EC50 assay; black plate, cat. #6005182 for CC50 assay). The rest of the plate, i.e. columns 2-12, was filled with 100 μL of cell media. The plate was then placed on a Precision 2000 Workstation in order to start serial dilution. Pteridine compounds were diluted three times each step from column 1 to column 10. Column 11 was used as a blank control (no pteridine compound added). • 2. With respect to poorly water soluble pteridine derivatives, DMSO was used as a solvent, and serial dilution was performed in 50% DMSO in water, in a 384-well plate. A solution containing the relevant compound at 100-fold the concentration of the starting final serial dilution concentration was prepared in 50% DMSO in water and added to the pre-specified wells in column 1 of a polypropylene 384-well plate. This plate was then placed on a Precision 2000 Workstation in order to start serial dilution. After serial dilution, 2 μL of the solution was transferred from the 384-well plate to a 96-well cell culture plate containing 100 μL of cell media on a Biomek FX Workstation. The DMSO concentration in the final assay condition was 0.5% after cells have been added to the plate and the total volume in each well was brought to 200 μL. Step 2: to each well of the serial dilution plate prepared in step 1, 100 μL of cell media containing 6000 suspended Huh-7 HCV replicon cells was added with a Multidrop workstation. Plates were incubated for 3 days at 37° C. with 5% CO2. Step 3: detection: • 1) with respect to the EC50 assay, the media in a 96-well cell culture plate was aspirated with a Biotek EL405 plate-washer. A volume of 200 μL of a solution containing a 1:1 mixture of a cell-lysis buffer (commercially available from Promega, Luciferase Cell Culture Lysis 5× Reagent, cat. #E1531) and a luciferase substrate solution (commercially available from Promega, Luciferase Assay, cat. # E4550) was added to each well of the plate with Multidrop. The plate was incubated for 30 minutes at room temperature before the luminescence signal was measured with a TopCount plate-reader. • 2) with respect to the CC50 assay, 100 μL of a pre-mixed CellTiter-Glo (commercially available from Promega, cat. # G7572) solution was added directly to the cell culture in each well of the plate and the luminescence signal was measured with a TopCount plate-reader after 10 minutes of incubation at room temperature.
(§3) Results are expressed by the following data: • the 50% effective concentration (EC50), i.e. the concentration that protects 50% of the cell monolayer from virus-induced cythopathic effect, and • the 50% cytostatic concentration (CC50), i.e. the concentration that results in 50% inhibition of cell growth.

Huh-7 HCV replicon cells = assay: CC50 assay (CellTiter-Glo) in Huh-7 HCV replicon cells; assay type: cell-based, human; settings: Table 1, 3 days
Method: as §1, §2, §3

Compound | EC50 (HCV replicon) | CC50 (Huh-7 HCV replicon cells)
COc1ccc(-c2cnc3nc(N)nc(N4CCN(C(=O)COc5ccccc5)CC4)c3n2)cc1OC [Example 1] | < 0.3 µM | > 20 µM
COc1ccc(-c2cnc3nc(N)nc(N4CCN(CCOc5ccccc5)CC4)c3n2)cc1OC [Example 2] | < 0.3 µM | > 20 µM
COc1ccc(-c2cnc3nc(N)nc(N4CCN(C(=O)Nc5cccc(C)c5)CC4)c3n2)cc1OC [Example 3] | < 0.3 µM | < 10 µM
COc1ccc(-c2cnc3nc(NCc4cccs4)nc(N)c3n2)cc1OC [Example 12] | 0.3 to 1 µM | 10 to 20 µM
CCCCCC(=O)N1CCN(c2nc(N)nc3ncc(-c4ccc(OC)c(OC)c4)nc23)CC1 [Example 16] | < 0.3 µM | 10 to 20 µM
COc1ccc(-c2cnc3nc(N)nc(N4CCN(C(=O)c5cccs5)CC4)c3n2)cc1OC [Example 19] | < 0.3 µM | 10 to 20 µM
CCN(CC)C(=O)N1CCN(c2nc(N)nc3ncc(-c4ccc(OC)c(OC)c4)nc23)CC1 [Example 20] | < 0.3 µM | > 20 µM
COc1ccc(-c2cnc3nc(N)nc(N4CCN(C(=O)c5ccncc5)CC4)c3n2)cc1OC [Example 22] | < 0.3 µM | 10 to 20 µM
CCCCCOc1ccc(C(=O)N2CCN(c3nc(N)nc4ncc(-c5ccc(OC)c(OC)c5)nc34)CC2)cc1 [Example 24] | < 0.3 µM | < 10 µM
COc1ccc(-c2cnc3nc(N)nc(N4CCN(S(=O)(=O)c5ccccc5)CC4)c3n2)cc1OC [Example 26] | < 0.3 µM | 10 to 20 µM
COc1ccc(-c2cnc3nc(N)nc(N4CCN(C(=O)Cc5cccs5)CC4)c3n2)cc1OC [Example 27] | < 0.3 µM | < 10 µM
COc1ccc(-c2cnc3nc(N)nc(N4CCN(C(=O)/C=C/c5ccccc5)CC4)c3n2)cc1OC [Example 28] | < 0.3 µM | < 10 µM
COc1ccc(-c2cnc3nc(N)nc(N4CCN(C(=O)N5CCCC5)CC4)c3n2)cc1OC [Example 29] | < 0.3 µM | 10 to 20 µM
COc1ccc(-c2cnc3nc(N)nc(N4CCN(C(=O)c5cc(F)c(Cl)nc5Cl)CC4)c3n2)cc1OC [Example 31] | < 0.3 µM | < 10 µM
COCC(=O)N1CCN(c2nc(N)nc3ncc(-c4ccc(OC)c(OC)c4)nc23)CC1 [Example 32] | < 0.3 µM | > 20 µM
COc1ccc(-c2cnc3nc(N)nc(N4CCN(S(=O)(=O)Cc5ccccc5)CC4)c3n2)cc1OC [Example 34] | < 0.3 µM | > 20 µM
COc1ccc(-c2cnc3nc(N)nc(N4CCN(C(=O)Cc5ccc(Cl)cc5)CC4)c3n2)cc1OC [Example 36] | < 0.3 µM | < 10 µM
COc1ccc(-c2cnc3nc(N)nc(N4CCN(C(=O)c5ccoc5)CC4)c3n2)cc1OC [Example 38] | 0.3 to 1 µM | 10 to 20 µM
COc1ccc(-c2cnc3nc(N)nc(N4CCN(C(=O)OCc5ccccc5)CC4)c3n2)cc1OC [Example 43] | < 0.3 µM | < 10 µM
COc1ccc(-c2cnc3nc(N)nc(N4CCN(Cc5cccc(C)c5)CC4)c3n2)cc1OC [Example 49] | < 0.3 µM | 10 to 20 µM
COc1ccc(-c2cnc3nc(N)nc(N4CCN(Cc5ccc(C)cc5)CC4)c3n2)cc1OC [Example 52] | 0.3 to 1 µM | > 20 µM
COc1ccc(-c2cnc3nc(N)nc(N4CCN(Cc5ccccc5F)CC4)c3n2)cc1OC [Example 53] | < 0.3 µM | < 10 µM
CCCCc1ccc(C(=O)N2CCN(c3nc(N)nc4ncc(-c5ccc(OC)c(OC)c5)nc34)CC2)cc1 [Example 54] | < 0.3 µM | < 10 µM
COCCN1CCN(c2nc(N)nc3ncc(-c4ccc(OC)c(OC)c4)nc23)CC1 [Example 55] | 0.3 to 1 µM | > 20 µM
COc1ccc(-c2cnc3nc(N)nc(N4CCN(C(=O)Oc5ccc(C)cc5)CC4)c3n2)cc1OC [Example 59] | < 0.3 µM | < 10 µM
COc1ccc(OC(=O)N2CCN(c3nc(N)nc4ncc(-c5ccc(OC)c(OC)c5)nc34)CC2)cc1 [Example 60] | < 0.3 µM | < 10 µM

Compound | EC50 (HCV replicon) | CC50 (Huh-7 HCV replicon cells)
COc1ccc(-c2cnc3nc(N)nc(N4CCN(C(=O)Oc5ccc(Cl)cc5)CC4)c3n2)cc1OC [Example 63] | < 0.3 µM | < 10 µM
COCCOC(=O)N1CCN(c2nc(N)nc3ncc(-c4ccc(OC)c(OC)c4)nc23)CC1 [Example 65] | < 0.3 µM | 10 to 20 µM
COc1ccc(-c2cnc3nc(N)nc(N4CCN(C(C)c5ccccc5)CC4)c3n2)cc1OC (stereo not drawn) [Example 73] | < 0.3 µM | < 10 µM
COc1ccc(-c2cnc3nc(N)nc(N4CCN(Cc5cccnc5)CC4)c3n2)cc1OC [Example 80] | < 0.3 µM | 10 to 20 µM
COc1ccc(-c2cnc3nc(N)nc(N4CCN(Cc5ccncc5)CC4)c3n2)cc1OC [Example 81] | 0.3 to 1 µM | 10 to 20 µM
COc1ccc(-c2cnc3nc(N)nc(N4CCN(CC(=O)N5CCOCC5)CC4)c3n2)cc1OC [Example 83] | 0.3 to 1 µM | > 20 µM
COc1ccc(-c2cnc3nc(N)nc(N4CCN(CC(=O)N5CCCC5)CC4)c3n2)cc1OC [Example 84] | < 0.3 µM | > 20 µM
COc1ccc(-c2cnc3nc(N)nc(N4CCN(CC(=O)N(C)c5ccccc5)CC4)c3n2)cc1OC [Example 85] | < 0.3 µM | < 10 µM
COc1ccc(-c2cnc3nc(N)nc(N4CCN(CCc5ccccc5)CC4)c3n2)cc1OC [Example 86] | < 0.3 µM | 10 to 20 µM
COc1ccc(-c2cnc3nc(N)nc(N4CCN(C(=O)Nc5ccccc5)CC4)c3n2)cc1OC [Example 87] | < 0.3 µM | < 10 µM
COc1ccc(-c2cnc3nc(N)nc(N4CCN(C(=O)Nc5ccc(F)cc5)CC4)c3n2)cc1OC [Example 88] | < 0.3 µM | < 10 µM
COc1ccc(-c2cnc3nc(N)nc(N4CCN(C(=O)Nc5ccc(C#N)cc5)CC4)c3n2)cc1OC [Example 89] | < 0.3 µM | > 20 µM
COc1ccc(N2CCN(c3nc(N)nc4ncc(-c5ccc(OC)c(OC)c5)nc34)CC2)cc1 [Example 95] | 0.3 to 1 µM | > 20 µM
CCOC(=O)CN1CCN(c2nc(N)nc3ncc(-c4ccc(OC)c(OC)c4)nc23)CC1 [Example 98] | < 0.3 µM | 10 to 20 µM
COc1ccc(-c2cnc3nc(N)nc(N4CCN(Cc5ccccn5)CC4)c3n2)cc1OC [Example 99] | 0.3 to 1 µM | 10 to 20 µM
COc1ccc(-c2cnc3nc(N)nc(N4CCN(CCC#N)CC4)c3n2)cc1OC [Example 100] | < 0.3 µM | 10 to 20 µM
CCOCCN1CCN(c2nc(N)nc3ncc(-c4ccc(OC)c(OC)c4)nc23)CC1 [Example 104] | < 0.3 µM | > 20 µM
COc1ccc(-c2cnc3nc(N)nc(N4CCN(CC5CCCO5)CC4)c3n2)cc1OC (stereo not drawn) [Example 108] | 0.3 to 1 µM | > 20 µM
COc1ccc(-c2cnc3nc(N)nc(N4CCN(CC5OCCO5)CC4)c3n2)cc1OC [Example 109] | 0.3 to 1 µM | > 20 µM
COc1ccc(-c2cnc3nc(N)nc(N4CCN(C(=O)NCc5ccccc5)CC4)c3n2)cc1OC [Example 111] | < 0.3 µM | 10 to 20 µM
COc1ccc(-c2cnc3nc(N)nc(N4CCN(C(=O)NCc5ccc(F)cc5)CC4)c3n2)cc1OC [Example 112] | < 0.3 µM | < 10 µM
COc1ccc(-c2cnc3nc(N)nc(N4CCN(C(=O)Nc5ccc(F)c(Cl)c5)CC4)c3n2)cc1OC [Example 113] | < 0.3 µM | < 10 µM
COc1ccc(-c2cnc3nc(N)nc(N4CCN(C(=O)Nc5cccs5)CC4)c3n2)cc1OC [Example 114] | < 0.3 µM | < 10 µM
COc1ccc(-c2cnc3nc(N)nc(N4CCN(C(=O)NCCc5cccs5)CC4)c3n2)cc1OC [Example 115] | < 0.3 µM | < 10 µM
CCCCNC(=O)N1CCN(c2nc(N)nc3ncc(-c4ccc(OC)c(OC)c4)nc23)CC1 [Example 118] | < 0.3 µM | < 10 µM
